Assay results from patent publication US20180237449A1, “FUMAGILLOL SPIROCYCLIC COMPOUNDS AND FUSED BICYCLIC COMPOUNDS AND METHODS OF MAKING AND USING SAME” (Zafgen, Inc., priority 2015, published 2018).
Counter-ions that a name gives are not always drawn.

Key:
[1] = test system: pregnant Sprague Dawley rats; assay: Rat embryofetal development study; format: in vivo; settings: 6 mpk sc once every three days, Gestation Days 6-18
Procedure: The objective of this study design was to evaluate the potential effects of disclosed compounds on embryo/fetal development when given subcutaneously to pregnant rats once every three days during the critical period of organogenesis (Gestation Days 6-18). Female, Sprague Dawley rats, approximately 10 weeks of age, time bred, were ordered from a certified vendor and housed individually housed in stainless steel cages suspended over flush pans, on a 12-hour light-dark cycle (0700-1900) at 20-26° C. and 30-70% humidity. Rats were fed a standard rodent chow and provided water ad libitum. Rats were received and housed in the facility for a period of approximately 1 to 2 days.
Compounds were formulated using 100% DMSO mixed in Sterile Water for Injection, resulting in 2% DMSO solution in water. If necessary, due to limited solubility of a test article, a higher percentage of DMSO solution in water was used. Groups of 8 mated and presumed pregnant female rats were given subcutaneous doses of vehicle or test article, once every three days, beginning on Gestation Day 6 and ending on Gestation Day 18 (Days 6, 9, 12, 15, and 18), maintained two more days, and then euthanized and necropsied on Gestation Day 20. Body weights was recorded for all animals on Gestation Days 5 (purpose of randomization), 6, 9, 12, 15, 18, and 20 (scheduled euthanasia). Food consumption by weight was recorded on Gestation Days 6, 9, 12, 15, 18, and 20 (scheduled termination).
At necropsy, the dams were examined visually for external abnormalities including palpable masses. The abdominal, thoracic, and cranial cavities and their contents were examined for abnormalities and findings will be recorded. The reproductive tract were examined to record the number of ovarian corpora lutea, the number and location of uterine implantation sites noting the position of the cervix, and the number of early resorptions, late resorptions, live fetuses, and dead fetuses. For dead fetuses and late resorptions, crown-to-rump length and weight were recorded, if possible, and the fetus was discarded. For viable fetuses, weight, sex, and grossly visible external abnormalities were recorded.

[2] = test system: human fibrosarcoma cell line HT-1080; assay: HT-1080 cell assay (CellTiter-Glo, 72 hours); format: cell-based; settings: 72 hours incubation
Procedure: The human fibrosarcoma cell line HT-1080 were grown to almost complete confluence in T75 tissue culture flasks in preparation for the experiment. The cells were trypsinised and re-suspended in complete medium using DMEM plus 9% FBS including penicillin/streptomycin supplements. 500 cells in a total volume of 25 μl were seeded into black walled 384 well plates and returned to a CO2 incubator over-night. Compounds and standards were prepared at 333.3× actual test concentration in neat DMSO. 10 point dose response curves of test compounds were generated by 1:3 serial dilutions, 2 μl of DMSO stock was transferred to 109 μl complete medium. This was further diluted 1:6 in complete medium, with 5 μl of the resulting solution added to the incubated 384 well plate. […] For experimental blanks at the start of the experiment, CellTiter-Glo was added to a satellite plate of cells (identical to the experimental plate), when adding compounds on Day 1. The average of these wells is used as the blanks in the calculation template. Following 72 hours incubation with compounds and standard the plate was removed from the incubator and allowed to equilibrate at room temperature for at least 30 minutes. CellTiter-Glo was thawed and subsequently 30 μl added to columns 2-23. The plate was covered with a clear Perkin Elmer Topseal and placed on a plate shaker for 10-20 mins to aid homogenous mixing. Luminescence per well was determined using an EnVision 2104 Multilabel Reader (PerkinElmer) or other suitable reader. The compound blank value recorded on Day 1 is subtracted from all other data. Data is expressed as % inhibition of mean DMSO control response and the EC50 is calculated as 50% maximum response. The EC50 values are determined from a sigmoidal 4 parameter curve fit using XLfit in conjunction with Activity Base (IDBS; Guildford, Surrey, UK). The bottom of the curve is fixed to 0% inhibition.

[3] = test system: Diet Induced Obese (DIO) C57BL/6 mice; assay: 10 day DIO mouse model, weight loss vs. vehicle; format: in vivo; settings: 0.3 mpk sc once a day for 10 days
From the text: The objective of this study design was to investigate the efficacy of disclosed compounds in a 10 day DIO mouse model. Effects on body weight, food intake, hematology and blood chemistry were the primary readouts of this study design. Male, Diet Induced Obese (DIO) C57BL/6 mice, 19-21 weeks of age (13-15 weeks on high fat diet) were ordered from a certified vendor and upon receipt were housed on irradiated corncob bedding in micro-isolator cages on a 12-hour light-dark cycle (0700-1900) at 68-74° F. and 30-70% humidity. Mice were fed Research Diets D12492 (60% Kcal fat, 20% Kcal carbohydrate and 20% protein) and provided water ad libitum. DIO mice were received and housed in the facility for approximately two weeks prior to the start of test article administration. On Day −4 or −3, mice were randomized into study groups based on body weight and body weights were continued to be recorded daily for the duration of the study. Daily food intake was assessed starting on Study Day −2 by weighing of the food with hopper together to avoid loss of food in transfer.
Compounds were formulated into a 100% DMSO stock (at 9 mg/mL) prior to the start, and further diluted into the target working concentration using the vehicle of 10% DMSO in water. Prior to test article administration, starting on Day −3 a dosing acclimation occurred with all animals receiving a subcutaneous injection of vehicle (10% DMSO) only for 3 days. Starting on Day 1, test compounds or vehicle were administered based on individual body weight, subcutaneously, once a day for 10 days. All mice were sacrificed on Day 11, 24 hours following the final dosing on Day 10. After sacrifice, whole blood was collected and analyzed for hematology and blood chemistry parameters.
Compounds were tested for weight loss vs. vehicle at 0.3 and 1.0 mpk sc (mg per kg animal weight delivered subcutaneously), and the results are shown in Table 2 below.

[4] = test system: DIO Sprague Dawley rats; assay: 11 day rat DIO model, weight loss vs. vehicle; format: in vivo; settings: 0.3 mpk sc once a day for 11 days
From the text: The objective of this study design is to investigate the efficacy of disclosed compounds in an 11 day rat DIO model used to screen compounds for pharmacologic efficacy on endpoints related to obesity and metabolism. Effects on body weight, food intake, hematology and blood chemistries were the primary readouts of this study design. Male Sprague Dawley rats, approximately 8 weeks of age, were ordered from a certified vendor and housed on irradiated corncob bedding in micro-isolator cages, on a 12-hour light-dark cycle (0700-1900) at 68-74° F. and 30-70% humidity. Rats were fed Research Diets D12451 (45% High Fat) and provided water ad libitum. Rats were received and housed in the facility for at least two or three weeks prior to start of test article administration. On Day −4 or −3, rats were randomized into study groups based on body weight and body weights were continued to be recorded daily for the duration of the study. Daily food intake was assessed starting on Study Day −2 by weighing the hopper including the food to avoid loss of food in transfer.
Compounds were formulated into a 100% DMSO stock (at 9 mg/mL) prior to the start, and further diluted into the target working concentration using the vehicle of 10% DMSO in water. […] After sacrifice, whole blood was collected and analyzed for hematology and blood chemistry parameters. […]

CO[C@@H]1[C@H](OC(=O)N2CC3C(C2)C3(F)F)CC[C@]2(CO2)[C@H]1[C@@]1(C)O[C@@H]1CC=C(C)C (stereo partly drawn) [Example 22, (3R,4S,5S,6R)-5-methoxy-4-((2R,3R)-2-methyl-3-(3-methylbut-2-enyl)oxiran-2-yl)-1-oxaspiro[2.5]octan-6-yl 6,6-difluoro-3-azabicyclo[3.1.0]hexane-3-carboxylate]
Rat Embryofetal @6 mpk [1]: Negative
EC50 [2]: < 0.5 nM

CO[C@@H]1[C@H](OC(=O)N2CC3(CCN(CC(F)F)CC3)C2)CC[C@]2(CO2)[C@H]1[C@@]1(C)O[C@@H]1CC=C(C)C [Example 9, (3R,4S,5S,6R)-5-methoxy-4-((2R,3R)-2-methyl-3-(3-methylbut-2-enyl)oxiran-2-yl)-1-oxaspiro[2.5]octan-6-yl 7-(2,2-difluoroethyl)-2,7-diazaspiro[3.5]nonane-2-carboxylate formate]
Rat Embryofetal @6 mpk [1]: Positive
EC50 [2]: < 0.5 nM

CO[C@@H]1[C@H](OC(=O)N2CC3(C2)CS(=O)(=O)C3)CC[C@]2(CO2)[C@H]1[C@@]1(C)O[C@@H]1CC=C(C)C [Example 23, (3R,4S,5S,6R)-5-methoxy-4-((2R,3R)-2-methyl-3-(3-methylbut-2-enyl)oxiran-2-yl)-1-oxaspiro[2.5]octan-6-yl 2-thia-6-azaspiro[3.3]heptane 2,2-dioxide-6-carboxylate]
weight loss vs. vehicle, Mouse @ 0.3 mpk sc (%) [3]: 2%

CO[C@@H]1[C@H](OC(=O)N2CCC3(CC2)COC3)CC[C@]2(CO2)[C@H]1[C@@]1(C)O[C@@H]1CC=C(C)C [Example 5, (3R,4S,5S,6R)-5-methoxy-4-((2R,3R)-2-methyl-3-(3-methylbut-2-enyl)oxiran-2-yl)-1-oxaspiro[2.5]octan-6-yl 2-oxa-7-azaspiro[3.5]nonane-7-carboxylate]
weight loss vs. vehicle, Mouse @ 0.3 mpk sc (%) [3]: 16.7%
weight loss vs. vehicle, Rat @ 0.3 mpk sc (%) [4]: 6.6%

CO[C@@H]1[C@H](OC(=O)N2CC3(COC3)C2)CC[C@]2(CO2)[C@H]1[C@@]1(C)O[C@@H]1CC=C(C)C [Example 2, (3R,4S,5S,6R)-5-methoxy-4-((2R,3R)-2-methyl-3-(3-methylbut-2-enyl)oxiran-2-yl)-1-oxaspiro[2.5]octan-6-yl 2-oxa-6-azaspiro[3.3]heptane-6-carboxylate]
Rat Embryofetal @6 mpk [1]: Positive
EC50 [2]: < 0.5 nM

CO[C@@H]1[C@H](OC(=O)N2CC3(CNC(=O)C3)C2)CC[C@]2(CO2)[C@H]1[C@@]1(C)O[C@@H]1CC=C(C)C [Example 25, (3R,4S,5S,6R)-5-methoxy-4-((2R,3R)-2-methyl-3-(3-methylbut-2-enyl)oxiran-2-yl)-1-oxaspiro[2.5]octan-6-yl 7-oxo-2,6-diazaspiro[3.4]octane-2-carboxylate]
weight loss vs. vehicle, Mouse @ 0.3 mpk sc (%) [3]: 2%

CO[C@@H]1[C@H](OC(=O)NC2CC3(CCN(C)C3)C2)CC[C@]2(CO2)[C@H]1[C@@]1(C)O[C@@H]1CC=C(C)C (stereo partly drawn) [Example 11, (3R,4S,5S,6R)-5-methoxy-4-((2R,3R)-2-methyl-3-(3-methylbut-2-enyl)oxiran-2-yl)-1-oxaspiro[2.5]octan-6-yl 6-methyl-6-azaspiro[3.4]octan-2-ylcarbamate formate]
weight loss vs. vehicle, Mouse @ 0.3 mpk sc (%) [3]: 6%

CO[C@@H]1[C@H](OC(=O)/C=C/c2ccc(OCCN(C)C)cc2)CC[C@]2(CO2)[C@H]1[C@@]1(C)O[C@@H]1CC=C(C)C [compound A, [(3R,6R,7S,8S)-7-methoxy-8-[(2R,3R)-2-methyl-3-(3-methylbut-2-enyl)oxiran-2-yl]-2-oxaspiro[2.5]octan-6-yl] (E)-3-[4-[2-(dimethylamino)ethoxy]phenyl]prop-2-enoate, reference compound]
Rat Embryofetal @6 mpk [1]: Positive

CO[C@@H]1[C@H](OC(=O)N2CCC3(CCOCC3)C2)CC[C@]2(CO2)[C@H]1[C@@]1(C)O[C@@H]1CC=C(C)C [Example 27, (3R,4S,5S,6R)-5-methoxy-4-((2R,3R)-2-methyl-3-(3-methylbut-2-enyl)oxiran-2-yl)-1-oxaspiro[2.5]octan-6-yl 8-oxa-2-azaspiro[4.5]decane-2-carboxylate]
Rat Embryofetal @6 mpk [1]: Positive
EC50 [2]: < 0.5 nM

CO[C@@H]1[C@H](OC(=O)N2CCC3(CCN(C)CC3)CC2)CC[C@]2(CO2)[C@H]1[C@@]1(C)O[C@@H]1CC=C(C)C [Example 28, (3R,4S,5S,6R)-5-methoxy-4-((2R,3R)-2-methyl-3-(3-methylbut-2-enyl)oxiran-2-yl)-1-oxaspiro[2.5]octan-6-yl 9-methyl-3,9-diazaspiro[5.5]undecane-3-carboxylate]
weight loss vs. vehicle, Mouse @ 0.3 mpk sc (%) [3]: 8%

CO[C@@H]1[C@H](OC(=O)N2C[C@@H]3[C@H](C2)[C@H]3C(=O)NCCN2CCOCC2)CC[C@]2(CO2)[C@H]1[C@@]1(C)O[C@@H]1CC=C(C)C [Example 37, (1R,5S,6R)-(3R,4S,5S,6R)-5-methoxy-4-((2R,3R)-2-methyl-3-(3-methylbut-2-en-1-yl)oxiran-2-yl)-1-oxaspiro[2.5]octan-6-yl 6-((2-morpholinoethyl)carbamoyl)-3-azabicyclo[3.1.0]hexane-3-carboxylate]
weight loss vs. vehicle, Mouse @ 0.3 mpk sc (%) [3]: 4.3%
